Assay results: PubChem BioAssay AID256 (DTP/NCI, 2004)
“And” between values parts separate entries of the source, which are not always exact repeats. Identical values can stand only once. Inconclusive results and toxic doses are left out.

System: CD2F1 mice, L1210 leukemia ip, survival T/C
Assay: NCI In Vivo Anticancer Drug Screen. Data for tumor model L1210 Leukemia (intraperitoneal) in CD2F1 (CDF1) mice
Conditions: higher = longer survival
Method in brief: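 Ratio T/C, where T is the treated-group value and C the vehicle-dosed control value, from mice implanted with a transplantable tumor.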

[1] = endpoint: mean survival time, dose: 75.0 mg/kg/injection, schedule: Q01DX001 (ip), vehicle: saline
[2] = endpoint: mean survival time, dose: 400.0 mg/kg/injection, schedule: Q01DX009 (ip), vehicle: saline with Tween-80
[3] = endpoint: mean survival time, dose: 100.0 mg/kg/injection, schedule: Q01DX001 (ip), vehicle: saline with Tween-80
[4] = endpoint: mean survival time, dose: 100.0 mg/kg/injection, schedule: Q04DX003 (ip), vehicle: saline with Tween-80
[5] = endpoint: mean survival time, dose: 200.0 mg/kg/injection, schedule: Q04DX003 (ip), vehicle: saline with Tween-80
[6] = endpoint: mean survival time, dose: 400.0 mg/kg/injection, schedule: Q04DX003 (ip), vehicle: saline with Tween-80
[7] = endpoint: mean survival time, dose: 100.0 mg/kg/injection, schedule: Q04DX002 (ip), vehicle: saline with Tween-80
[8] = endpoint: mean survival time, dose: 200.0 mg/kg/injection, schedule: Q01DX001 (ip), vehicle: saline with Tween-80
[9] = endpoint: mean survival time, dose: 200.0 mg/kg/injection, schedule: Q04DX002 (ip), vehicle: saline with Tween-80
[10] = endpoint: mean survival time, dose: 400.0 mg/kg/injection, schedule: Q01DX001 (ip), vehicle: saline with Tween-80
[11] = endpoint: mean survival time, dose: 400.0 mg/kg/injection, schedule: Q04DX002 (ip), vehicle: saline with Tween-80

## O=C1C2CC=CC2C1(Cl)Cl (configuration not stated)
[1]
  T/C: 91 % of control
endpoint: mean survival time, dose: 150.0 mg/kg/injection, schedule: Q01DX001 (ip), vehicle: saline
  T/C: 94 % of control
endpoint: mean survival time, dose: 300.0 mg/kg/injection, schedule: Q01DX001 (ip), vehicle: saline
  T/C: 91 % of control

## CC(=O)NC(C(=O)O)=C(C)C
endpoint: mean survival time, dose: 100.0 mg/kg/injection, schedule: Q01DX009 (ip), vehicle: saline with Tween-80
  T/C: 96 % of control
endpoint: mean survival time, dose: 200.0 mg/kg/injection, schedule: Q01DX009 (ip), vehicle: saline with Tween-80
  T/C: 105 % of control
[2]
  T/C: 96 % of control

## COc1cc2c(cc1Oc1c(O)c(OC)cc3c1C(C)N(C)CC3)C(C)N(C)CC2 (configuration not stated)
[1]
  T/C: 101 % of control

## O/N=C/c1ccccc1
endpoint: mean survival time, dose: 11.0 mg/kg/injection, schedule: Q01DX009 (ip), vehicle: saline with Tween-80
  T/C: 108 % of control
endpoint: mean survival time, dose: 16.5 mg/kg/injection, schedule: Q01DX009 (ip), vehicle: saline with Tween-80
  T/C: 94 % of control
endpoint: mean survival time, dose: 25.0 mg/kg/injection, schedule: Q01DX001 (ip), vehicle: saline
  T/C: 97 % of control
endpoint: mean survival time, dose: 25.0 mg/kg/injection, schedule: Q01DX009 (ip), vehicle: saline with Tween-80
  T/C: 97 % of control
endpoint: mean survival time, dose: 37.5 mg/kg/injection, schedule: Q01DX009 (ip), vehicle: saline with Tween-80
  T/C: 95 % of control
endpoint: mean survival time, dose: 50.0 mg/kg/injection, schedule: Q01DX001 (ip), vehicle: saline
  T/C: 97 % of control
[3]
  T/C: 97 % of control
endpoint: mean survival time, dose: 100.0 mg/kg/injection, schedule: Q01DX001 (ip), vehicle: saline
  T/C: 101 % of control

## CC(=O)CC(=O)OCc1ccccc1
[4]
  T/C: 100 % of control
[5]
  T/C: 95 % of control
[6]
  T/C: 103 % of control

## CN(C)C1(Cc2ccccc2)c2ccccc2-c2ccc(Br)cc21 (configuration not stated)
[4]
  T/C: 89 % of control
[5]
  T/C: 87 % of control

## Nc1c(/C=C/c2cc3cc(C4=NCCN4)ccc3o2)[nH]c2cc(C3=NCCN3)ccc12
endpoint: median survival time, dose: 3.12 mg/kg/injection, schedule: Q01DX009 (ip), vehicle: Klucel (hydroxypropylcellulose) (HPC)
  T/C: 124 % of control
endpoint: median survival time, dose: 18.0 mg/kg/injection, schedule: Q01DX005 (ip), vehicle: Klucel (hydroxypropylcellulose) (HPC)
  T/C: 178 % of control
endpoint: median survival time, dose: 25.0 mg/kg/injection, schedule: Q01DX005 (ip), vehicle: Klucel (hydroxypropylcellulose) (HPC)
  T/C: 160 % of control
endpoint: median survival time, dose: 30.0 mg/kg/injection, schedule: Q01DX005 (ip), vehicle: Klucel (hydroxypropylcellulose) (HPC)
  T/C: 297 % of control
endpoint: median survival time, dose: 50.0 mg/kg/injection, schedule: Q01DX005 (ip), vehicle: Klucel (hydroxypropylcellulose) (HPC)
  T/C: 171 % of control and 237 % of control

## CCOc1ccc(NC(=S)NC(=O)/C=C/c2ccccc2)cc1
endpoint: mean survival time, dose: 12.5 mg/kg/injection, schedule: Q01DX009 (ip), vehicle: saline with Tween-80
  T/C: 93 % of control and 96 % of control
[3]
  T/C: 95 % of control
[7]
  T/C: 95 % of control and 98 % of control
[4]
  T/C: 93 % of control
[8]
  T/C: 100 % of control
[9]
  T/C: 94 % of control and 97 % of control
[5]
  T/C: 96 % of control
[10]
  T/C: 93 % of control
[2]
  T/C: 108 % of control and 111 % of control
[11]
  T/C: 94 % of control and 101 % of control
[6]
  T/C: 96 % of control

## Cc1nc(C)c(C#N)c(=O)[nH]1
[7]
  T/C: 97 % of control
[9]
  T/C: 97 % of control
[11]
  T/C: 97 % of control

## CNC(=O)/C(=C\c1ccccc1Cl)NC(C)=O
[3]
  T/C: 97 % of control
[8]
  T/C: 93 % of control
[10]
  T/C: 93 % of control
